In patent publication US20210228500A1, “CELLULAR RETINOID BINDING PROTEIN ANTAGONISTS AND USES THEREOF” (CASE WESTERN RESRVE UNIVERSITY, priority 2018, published 2021):

Experiments:
CRBP1 [1] = target: T1, CRBP1 (Homo sapiens, UniProt P09455); experiment: Fluorescence binding assay: atROL displacement from holo-CRBP1 (FRET); conditions: for binding to / interaction with CRBP1: 0-10 μM range
T1 construct: made in house
T1 sequence (P09455 1-135): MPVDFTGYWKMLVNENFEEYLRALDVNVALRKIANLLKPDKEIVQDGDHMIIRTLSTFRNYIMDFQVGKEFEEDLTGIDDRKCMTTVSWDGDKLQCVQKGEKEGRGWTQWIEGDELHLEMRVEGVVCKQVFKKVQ
Protocol: Human apo-CRBP1 was expressed and purified as described by Silvaroli et al. (J Biol Chem. 2016, 15; 291(16)) without any further modification to the established protocol.
To prepare holo-CRBP1, 3 mg of purified apoprotein was incubated for 15 min on ice with 2 molar excess of atROL (Toronto Research Chemicals) in 10 mM Tris-HCl, pH 8.0, 5% glycerol (v/v). The retinoid was delivered in acetonitrile (<1%, v/v). To remove excess of atROL, the protein solution was diluted 10× with 10 mM Tris-HCl, pH 8.0, centrifuged (36 000 g, 20 min, 4° C.) and loaded onto a 5 mL HiTrap Q HP column. Holo-CRBP1 was eluted from the column in conditions described in CRBP1 purification method. The efficiency of formation of holo-CRBP1 was examined by recording UV/vis spectrum of the repurified protein.
The apparent affinity of nonretinoid ligands was evaluated by monitoring changes in the fluorescence of holo-CRBP1. In the atROL bound form, the protein excited at 285 nm emitted fluorescence at 350 and 480 nm due to FRET between the protein scaffold and the retinoid moiety (FIG. 2A). Replacement of atROL in the binding site by tested ligands leads to disruption of FRET and consequently an increase in the fluorescence intensity at 350 nm with concomitant diminishing signal at 480 nm. All fluorescence measurements were performed using a PerkinElmer Life Sciences LS55 spectrofluorometer. The titrations were performed at 25° C. in 67 mM phosphate-buffered saline buffer, pH 7.4, containing 5% glycerol (v/v) by adding an increasing amount of an examined compound delivered in acetonitrile. […] All fluorescence spectra were corrected for the inner filter effect. The Ki values were calculated by fitting intensities of the protein fluorescence at the maximum emission (350 nm) or the intensity of retinoid fluorescence at 480 nm to the saturation single ligand-binding model. The data fitting and calculations of the Ki values were performed using SigmaPlot 11 software package (Systat Software).

CRBP1 [2] = target: T1, CRBP1; conditions: read-out: affinity for atROL; cited from earlier work
CRBP4 = target: T2, CRBP4 (Homo sapiens, UniProt Q96R05); conditions: read-out: affinity for atROL; cited from earlier work
T2 construct: thrombin cut site (residual residues after digestion) (C); 6x histidine tag (C, cleaved yes); made in house; host or cells: E. coli BL21 (DE3) (as for CRBP2)
T2 sequence (Q96R05 1-134): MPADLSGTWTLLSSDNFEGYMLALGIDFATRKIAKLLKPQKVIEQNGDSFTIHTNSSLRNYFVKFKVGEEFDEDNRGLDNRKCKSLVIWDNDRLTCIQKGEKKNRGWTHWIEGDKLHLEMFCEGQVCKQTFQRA

[3] = fluorescence atROL-replacing assay

Question: Which “further increase of the Ki value” (CRBP1 [1]; fluorescence atROL-replacing assay, relative to abn-CBDO) does the source give for `C=C(C)[C@@H]1CCC(C)=CC1c1c(O)cc(C)cc1O` (stereo partly drawn) [CBDO, 5-methyl-2-[(6R)-3-methyl-6-prop-1-en-2-ylcyclohex-2-en-1-yl]benzene-1,3-diol] here?
Answer: 6.3 fold

Question: With `C=C(C)[C@H]1CC=C(C)CC1` [limonene, reference compound] as the compound, how does the “binding to / interaction with CRBP1” value (CRBP1 [1]; [3]) read?
Answer: did not observe limonene interacting

Question: For `C=C(C)[C@@H]1CCC(C)=C[C@H]1c1c(OC)cc(C)cc1OC` [0-1918, 1,3-dimethoxy-5-methyl-2-[(1R,6R)-3-methyl-6-prop-1-en-2-ylcyclohex-2-en-1-yl]benzene], which “binding to / interaction with CRBP1” value (CRBP1 [1]; [3]) is on record?
Answer: abolished the meaningful binding

Question: With `C=C(C)[C@@H]1CCC(C)=C[C@H]1c1c(C)cc(O)cc1O` [abn-CBDO, 5-methyl-4-[(1R,6R)-3-methyl-6-prop-1-en-2-ylcyclohex-2-en-1-yl]benzene-1,3-diol] as the compound, how does the “apparent affinity lowered compared with abn-CBD” value (CRBP1 [1]; fluorescence atROL-replacing assay, relative to abn-CBD) read?
Answer: 4.3 times

Question: Which Kd (CRBP1 [2]) does the source give for `CC1=C(/C=C/C(C)=C/C=C/C(C)=C/CO)C(C)(C)CCC1` [atROL, all-trans-retinol] here?
Answer: < 1 nM

Question: And the Kd (CRBP4)?
Answer: 200 nM

Question: And the Ki (CRBP1 [1]; reverse experiment: CRBP1 loaded with abn-CBD titrated with atROL, read-out: Ki value for replacing abn-CBD by vitamin A)?
Answer: ~34 nM
